From patent publication US12042530B2, “Target peptides for immunotherapy and diagnostics” (University of Virginia Patent Foundation, priority 2012, dated 2024)
Like-named read-outs stand apart in the source and are kept apart here. Non-standard residues stand in square brackets, D forms with d. No end group written: not given here. pS = N[C@@H](COP(=O)(O)O)C(=O)O

How the values were obtained:
HLA A*0301 = HLA A*0301 (Homo sapiens, UniProt P04439); assay: Binding to HLA A*0301 (statement)
PBMCs [1] = assay: Memory T cell response, IFNγ ELISpot, healthy A2 positive donors; type: cell-based, human; conditions: for Day 7 ELISpot, donor alpha: healthy A2 positive donor alpha; for Day 7 ELISpot, donor one: healthy A2 positive donor one
cancer cell lines = assay: Recognition of naturally processed phosphopeptides on cancer cell lines by phosphopeptide-specific CTL (murine IFNγ); type: cell-based, human; conditions: ovarian, melanoma and breast cancer lines versus JY EBV-BLCL control
Experimental: FIGS. 9A and 9B are bar graphs of the recognition of naturally processed and presented phosphorylated peptides on cancer cells by the phosphopeptide-specific CTL. Phosphopeptide-specific CTL were incubated with the following cancer cell lines or EBV-transformed B lymphoblastoid cell lines (BLCL): COV413.AAD.A4 ovarian carcinoma, DM331.AAD.A4 and SLM2.AAD.A1 melanomas, MCF7.AAD.A2 and MDAMB231.AAD breast carcinomas, and JY EBV-BLCL. Supernatants were harvested and evaluated for the presence of murine IFNγ (produced by murine CTL lines). […] The designation “pS” denotes a phosphoserine residue. The ordinate indicates murine IFNγ in pg/ml. The abscissa indicates each cell line.

HLA A*0201 = HLA A*0201 (Homo sapiens, UniProt P04439, D140Y/D185E/D98H/E176V/E277Q/G131W/G231S/I119V/I121R/I166T/I218V/L300P/L318F/N151K/N90K/P208A/P217A/Q86G/Q94H/R138H/R169H/T345S); assay: Binding to HLA A*0201 (statement)
PBMCs [2] = assay: 7-day recall ELISpot, AML patients, before and after stem cell transplantation; type: cell-based, human
Experimental: To develop a more complete understanding of phosphoantigen-directed T cell immunity in patients with leukemia, these studies were extended into AML using a panel of 14 AML-specific phosphopeptide antigens. A cohort of 12 patients in complete remission (CR) with AML (see Table 24) were assessed using 7-day recall responses, as measured by ELISpot, and compared against a cohort of 12 healthy donors (see FIGS. 14A and 16).
To test this hypothesis, all 12 AML patients underwent allogeneic SCT and immune reconstitution against 14 AML-specific phosphopeptide antigens was monitored. […] For some patients, immune reconstitution was studied in more detail. For patient AML8 marked expansions of 6 different phosphopeptide immune responses were observed (see FIG. 14E).
For ELISpot analysis, PBMCs and CD8^+ T cells were isolated fresh from healthy donors and patients. 1×10^6 PBMCs were isolated from both AML patients and healthy donors and resuspended in AIM-V media (10% human AB serum) in a 96 well plate. Peptide or phosphopeptides were added individually at 10 μg/ml and placed at 37° C. in CO2 incubator for 7 days. Cells were then harvested, washed 4 times, and re-challenged with phosphopeptides, peptides, or anti-CD3 (OKT3, 100 ng/ml, Mabtech, Inc., Mariemont, Ohio, United States of America) as per the manufacturer's instructions. […]

CD8+ T cells = assay: ELISpot T cell recognition assay, healthy donors, leukemia-associated phosphopeptides; type: cell-based, human; conditions: 10 HLA-A2+ and 10 HLA-B7+ healthy individuals, 7 day cultures
Experimental: Immunity against 76 HLA-B7 and 10 HLA-A2 leukemia-associated phosphopeptide antigens was assessed in 10 HLA-A2^+ and 10 HLA-B7^+ healthy individuals (see FIG. 12A).
For ELISpot analysis, PBMCs and CD8^+ T cells were isolated fresh from healthy donors and patients. 1×10^6 PBMCs were isolated from both AML patients and healthy donors and resuspended in AIM-V media (10% human AB serum) in a 96 well plate. Peptide or phosphopeptides were added individually at 10 μg/ml and placed at 37° C. in CO2 incubator for 7 days. Cells were then harvested, washed 4 times, and re-challenged with phosphopeptides, peptides, or anti-CD3 (OKT3, 100 ng/ml, Mabtech, Inc., Mariemont, Ohio, United States of America) as per the manufacturer's instructions. Individual cytokine-producing cells were identified as dark spots after a 15 minute reaction with 5-bromo-4-chloro-3-indolyl phosphate and NBT by means of an alkaline phosphatase conjugate substrate (Mabtech).

[3] = tested on: RQA(pS)IELPSMAV-specific T cells; assay: Recognition of peptide-loaded targets by RQA(pS)[…]-specific T cells (IFNγ); type: cell-based, human
Source text: Three of the HLA-A2 and two HLA-B7 phosphopeptides were derived from LSP-1, a protein previously identified as a potential tumor marker. One of these, RQA(pS)[…] (SEQ ID NO: 452), was selected for initial immunological studies due to its widespread expression on all HLA-A2^+ tumor samples analyzed and also because it was present on tumor samples at high copy number. Monocyte-derived dendritic cells were generated from healthy donors and used to prime autologous T cells and HLA-phosphopeptide tetramers were used to enrich phosphopeptide-specific T cells, between each stimulation steps, to produce a monospecific T cell line (see FIG. 11A). […] Recognition was, therefore, phosphate-dependent and phosphopeptide-specific.
HLA-A2 restricted RQA-V (SEQ ID NO: 2375) phosphopeptide-specific cytotoxic CD8^+ T cells were generated from healthy donors as described previously in Ho et al., 2006. Briefly, PBMCs were cultured in flat-bottom 6-well plates at 10^7 cells per well in RPMI 1640 plus 10% heat-inactivated human AB serum (10% media). GM-CSF (800 IU/mL), and IL-4 (1000 units/mL; PeproTech) were added on day 0 to generate dendritic cells (DC). On day 1, a maturation cocktail was added containing 100 ng/ml TNFα, 100 ng/ml IL-1β, 10,000 IU/ml IL-6, 8,000 IU/ml GM-CSF, and 10 μg/ml PGE2. […]

Substance	Day 7 ELISpot, donor alpha (PBMCs [1])	Day 7 ELISpot, donor one (PBMCs [1])	Recognition of the endogenous phosphopeptide by specific CTL lines (cancer cell lines)	Immune reconstitution after allogeneic stem cell transplantation (PBMCs [2])	Immune response in healthy donors, in words (CD8+ T cells)	IFNγ production by RQA(pS)IELPSMAV-specific T cells in response to the peptide [3]	also measured
RVApSPTSGV (RVA[pS]PTSGV; listed as Homo sapiens) [SEQ ID NO: 418]	++ (25-99 spots)	++ (25-99 spots)	recognized the phosphopeptide on all the cancer cell lines but not the control cell line	–	–	–	Binding to / presentation by HLA A*0301 (HLA A*0301): cannot be presented by the A*0301 molecule; Binding to / presentation by HLA A*0301 (HLA A*0301; listed as RVA): binds to A*0301; Memory T cell response, in words (PBMCs [1]; healthy donors / patient): None of the HD recognized or responded to it; Binding to HLA A*0201 (HLA A*0201): binds to HLA A*0201; Binding to HLA A*0201 (HLA A*0201; listed as RVA): did not bind to A*0201
EPRsPSHSM (EPR[pS]PSHSM; listed as Homo sapiens) [SEQ ID NO: 270]	–	–	–	dramatic expansion	–	–	–
RQA(pS)IELPSMAV (RQA[pS]IELPSMAV; listed as Homo sapiens) [SEQ ID NO: 452]	–	–	–	–	some of the strongest responses	produced IFNγ	–
QPRtPSPLVL [SEQ ID NO: 304]	–	–	–	dramatic expansion	some of the strongest responses	–	–
GLLGpSPVRA (GLLG[pS]PVRA; listed as Homo sapiens) [SEQ ID NO: 396]	+ (3-24 spots)	+ (3-24 spots)	recognized the phosphopeptide on all the cancer cell lines but not the control cell line	–	–	–	–
RQASIELPSMAV [reference compound]	–	–	–	–	–	not to the unphosphorylated RQASIELPSMAV	–
